Reference: US20260199535A1, “PCTA derivatives, conjugates thereof and uses thereof” (NOVARTIS AG, priority 2022, published 2026)
Read-outs that look alike come from different tables or passages of the source. Each block holds one compound with its values, some of them ahead of it.

Experiments:
[1] = crosslinker bond; 12-membered ring; intermediate G (1 eq)/DIPEA (5 eq); CH3CN; 15.6 mM; 60.0 °C
[2] = Buffer stability of Example 17 radiolabeled with ^177LuCl3; assay type: physicochemical; conditions: ^177Lu-labeled, formulation diluted with PBS, RCP at t=0 93%
Protocol: To a mixture of sodium acetate in water (35.0 μL, 1.5 M), ascorbic acid in H2O (35.00 μL, 0.04 M), ethanol (58.5 μL) and acetic acid (1.5 μL) was added [^177Lu]LuCl3 ([…], 0.04 M HCl, 58.2 MBq). A solution of (((1S)-5-((2R)-2-amino-3-((2,5-dioxo-1-(4-(3,6,9-tris(carboxymethyl)-3,6,9-triaza-1(2,6)-pyridinacyclodecaphane-4-yl)butyl)pyrrolidin-3-yl)thio)propanamido)-1-carboxypentyl)carbamoyl)-L-glutamic acid (7.9 μL) of a 0.2 mM in water was added. After shaking (450 rpm) at 95° C. for 15 min, the reaction mixture was left cooling down for few minutes. The solution was diluted with 385 μl of PBS to keep the final formulation with EtOH below 9%. The radiochemical purity and stability were assessed using HPLC-1 conditions: Waters; column: phenomenex Luna; particle size 2.5 μm; size: 4.6×100 mm; flow rate: 1 mL/min; mobile phase A: H2O+0.1% TFA and B: CH3CN; gradient: 10 to 80% solvent B in 9 min.

[3] = Buffer stability of Example 17 radiolabeled with ^68GaCl3; assay type: physicochemical; conditions: ^68Ga-labeled, sodium acetate/acetic acid reaction buffer, t=4 hours; RCP at t=0 75%
Protocol: A solution of sodium acetate trihydrate in water 1.5 M (740.0 μL), acetic acid (260.0 μL) and (((1S)-5-((2R)-2-amino-3-((2,5-dioxo-1-(4-(3,6,9-tris(carboxymethyl)-3,6,9-triaza-1(2,6)-pyridinacyclodecaphane-4-yl)butyl)pyrrolidin-3-yl)thio)propanamido)-1-carboxypentyl)carbamoyl)-L-glutamic acid (2 mM; 1.907 mg/mL; […]) were added to a 8 mL glass V-vial. This vial was sealed, the vacuum needle and the ^68Ga/HCl 0.1M needle were connected to the vial. The gallium generator was eluted to the reaction vial (approximately 260 MBq [^68Ga]GaCl3 in HCl 0.1M, 1.1 mL). The vacuum needle and the ^68Ga/HCl 0.1M needle were disconnected from the reaction vial. After shaking (600 rpm) at 45° C. for 30 min, the reaction mixture was left cooling down for few minutes. The radiochemical purity and stability were assessed using HPLC-1 conditions: Waters; column: Phenomenex Luna; particle size 2.5 μm; size: 4.6×100 mm; flow rate: 1 mL/min; mobile phase A: H2O+0.1% TFA and B: CH3CN; gradient: 10 to 80% solvent B in 9 min. RCP at t=0, 75% and stability t=4 hours, 74%.

[4] = crosslinker bond, 12-membered ring, CH3CN, 60.0 °C

Compound: Tri-tert-butyl 2,2′,2″-(1^4-(3-((tert-butoxycarbonyl)amino)propoxy)-3,6,9-triaza-1(2,6)-pyridinacyclodecaphane-3,6,9-triyl)(2S,2′S,2″S)-tripropionate
- ring closure, yield after HPLC [1]: 52%

- stability (radiochemical purity by HPLC) ([2]; t=4 hours): 94%
- stability (radiochemical purity by HPLC) ([2]; t=8 hours): 95%
- stability (radiochemical purity by HPLC) ([2]; t=24 hours): 94%
- stability (radiochemical purity by HPLC) [3]: 74%
Compound: N[C@@H](CSC1CC(=O)N(CCCCC2CN(CC(=O)O)CCN(CC(=O)O)Cc3cccc(n3)CN2CC(=O)O)C1=O)C(=O)NCCCC[C@H](NC(=O)N[C@@H](CCC(=O)O)C(=O)O)C(=O)O (stereo partly drawn) [Example 17, (((1S)-5-((2R)-2-amino-3-((2,5-dioxo-1-(4-(3,6,9-tris(carboxymethyl)-3,6,9-triaza-1(2,6)-pyridinacyclodecaphane-4-yl)butyl)pyrrolidin-3-yl)thio)propanamido)-1-carboxypentyl)carbamoyl)-L-glutamic acid]

Compound: Tetra-tert-butyl 2,2′-(1^4-(methoxycarbonyl)-6-oxa-3,9-diaza-1(2,6)-pyridinacyclodecaphane-3,9-diyl)(2R,2′R)-disuccinate
- ring closure, isolated yield ([4]; methyl 2,6-bis(bromomethyl)isonicotinate (1 eq)/DIPEA (5 eq), 17.9 mM): 57.1%

Compound: Tetra-tert-butyl 2,2′-(1^4-(3-((tert-butoxycarbonyl)amino)propoxy)-3,7-diaza-1(2,6)-pyridina-5(1,3)-benzenacyclooctaphane-3,7-diyl)(2R,2′R)-disuccinate
- ring closure, isolated yield ([4]; 2,6-bis(bromomethyl)pyridine (1 eq)/DIPEA (5 eq), 32.6 mM): 55.3%

Compound: CC(C)(C)OC(=O)C[C@@H](NCCOCCN[C@H](CC(=O)OC(C)(C)C)c1ccccn1)C(=O)OC(C)(C)C
- ring closure, isolated yield ([4]; the molecule shown is the open-chain precursor, methyl 2,6-bis(bromomethyl)isonicotinate (1 eq)/DIPEA (5 eq), 20.9 mM): 48.7%
